Laboratory results from patent US10624836B2, “Essential oil of achillea as anti-ageing agent” (L'OREAL, priority 2013, dated 2020).

Experiments:
[1] = tested on: epidermis of a Realskin™ reconstructed skin; test: Intra-tissue glutathione (GSH) level in reconstructed skin, LC/MS of GS-NEM; assay type: cell-based; settings: lipoic acid 250 μmol·l^−1; 16 h at 37° C.; positive control
Description: For this, the GSH level was measured in the epidermis of a Realskin™ reconstructed skin which was: • nontreated (control), • treated with essential oil of Achillea at 0.01% by volume, or • treated with lipoic acid at 250 μmol·l^−1 (positive control).
The reconstructed tissue model kits are conditioned for transport on agar medium. Upon arrival, the tissues were reconditioned in a maintenance medium for a minimum of 16 h at 37° C. in a moisture-saturated atmosphere enriched with 5% CO2. The same medium was used for the incubations in the presence of the substrate.
The various solutions (2 ml) (of essential oil of Achillea at 0.01% by volume and of lipoic acid at […]) were deposited in the wells underneath the skins in order to diffuse through said skins more easily by capillary action. The tissues were then incubated in an incubator at 37° C. for 16 h.
The tissues were ground by means of a Potter grinder in […] of a solution of N-ethylmaleimide (NEM) at 2.5 mmol·l^−1 (excess of NEM). The Potter grinder was then washed with […] of ultrapure water, and 500 μl of 2% formic acid were added. The samples were then centrifuged for 15 minutes at 6000 rpm and at 4° C.
In order to assay the glutathione coupled to the NEM (GS-NEM), […] of the supernatant is diluted in 975 μl of 1% formic acid (1/40) in a 1 ml vial. […]

[2] = tested on: primary normal human keratinocytes; test: Collagen IV production by keratinocytes, in situ immunolabelling and image analysis; assay type: cell-based; settings: TGF-β tested at 10 ng/ml; 72 hours at 37° C.; positive control
Description: The keratinocytes were seeded into and cultured in culture medium for 24 hours.
The culture medium (2.5 ml) was then replaced: • either with test medium containing TGF-β (Transforming Growth Factor β) at 10 ng/ml (positive control), • or with test medium containing the essential oil of Example 1 at 0.003% by volume, • or with the same culture medium (control).
The cells were then incubated for 72 hours at 37° C.
The culture medium was removed and the cells were rinsed, fixed and permeabilized. They were then labelled with an Anti-Collagen IV primary antibody sold by Abcam (reference: Ab6586) directed against the protein of interest (collagen IV). This antibody was visualized with an Alexa Fluor® 488 Goat Anti-Rabbit IgG (H+L) secondary antibody sold by Invitrogen (reference: A11008) coupled to a fluorochrome (GAR-Alexa 488). In parallel, the nuclei of the cells were stained with Hoechst 33258 (bisbenzimide).
The image acquisition was carried out with an INCellAnalyzer™1000 (GE Healthcare) high-resolution imaging system. For each well, 5 digitized images were acquired.
The labellings were quantified by measuring the fluorescence intensity of the proteins relative to the number of nuclei identified by the Hoechst product (integration of the digital data using the Developer Toolbox 1.5 software, GE Healthcare).

With O=C(O)CCCC[C@@H]1CCSS1 (racemic) [lipoic acid] the “increase in the GSH level relative to the nontreated tissues” value [1] was 52.0+/−12.7%.
In the case of TGF-β, the “collagen IV production by the keratinocytes, relative to the control” value [2] is reported as 594%.
